Laboratory results reported in patent US8466176B2 (priority 2008, dated 2013).

test: logP by HPLC on reversed phase columns, method [a], pH 2.3 with 0.1% phosphoric acid and acetonitrile; format: physicochemical; conditions: method [a]: pH 2.3, 0.1% phosphoric acid and acetonitrile as eluent; EEC directive 79/831 Annex V.A8, reversed phase HPLC

SMILES	log p
Cn1nnnc1C(=NOCc1cccc(-c2cccc(CON=C(c3ccccc3)c3nnnn3C)n2)n1)c1ccccc1 [Example 21]	4.36^[a]
Cn1nnnc1C(=NOCc1cccc(C#CC(C)(C)C)n1)c1ccccc1 [Example 22]	4.19^[a]
Cn1nnnc1C(=NOCc1cccc(C#Cc2ccccc2)n1)c1ccccc1 [Example 25]	4.04^[a]
Cn1nnnc1C(=NOCc1cccc(C#CC[Si](C)(C)C)n1)c1ccccc1 [Example 26]	4.61^[a]
CCCC#Cc1cccc(CON=C(c2ccccc2)c2nnnn2C)n1 [Example 27]	3.83^[a]
CC(C)[Si](C#Cc1cccc(CON=C(c2ccccc2)c2nnnn2C)n1)(C(C)C)C(C)C [Example 28]	6.83^[a]
Cn1nnnc1C(=NOCc1cccc(C#CC2CCCC2)n1)c1ccccc1 [Example 29]	4.34^[a]
Cn1nnnc1C(=NOCc1cccc(C#CC2CCCCC2)n1)c1ccccc1 [Example 30]	4.77^[a]
COc1cccc(-c2cccc(CON=C(c3ccccc3)c3nnnn3C)n2)c1 [Example 33]	3.89^[a]
Cn1nnnc1C(=NOCc1cccc(-c2ccc(C(F)(F)F)cc2)n1)c1ccccc1 [Example 34]	4.62^[a]
Cn1nnnc1C(=NOCc1cccc(-c2ccc(-c3ccccc3)cc2)n1)c1ccccc1 [Example 35]	5.05^[a]
Cn1nnnc1C(=NOCc1cccc(-c2ccc(OCc3ccccc3)cc2)n1)c1ccccc1 [Example 36]	4.89^[a]
CN(CCc1ccccc1)c1nc(CON=C(c2ccccc2)c2nnnn2C)cs1 [Example 37]	3.96^[a]
CCc1ccc(-c2cccc(CON=C(c3ccccc3)c3nnnn3C)n2)cc1 [Example 38]	4.7^[a]
CCCCOc1ccc(-c2cccc(CON=C(c3ccccc3)c3nnnn3C)n2)cc1 [Example 39]	5.2^[a]
Cn1nnnc1C(=NOCc1cccc(-c2ccc(OC(F)(F)F)cc2)n1)c1ccccc1 [Example 40]	4.73^[a]
Cn1nnnc1C(=NOCc1cccc(-c2cc(Cl)cc(Cl)c2)n1)c1ccccc1 [Example 41]	5.23^[a]
CCCCOc1cccc(-c2cccc(CON=C(c3ccccc3)c3nnnn3C)n2)c1 [Example 44]	5.2^[a]
Cn1nnnc1C(=NOCc1cccc(-c2cccc(C(F)(F)F)c2)n1)c1ccccc1 [Example 45]	4.56^[a]
COCCCN(C)c1nc(CON=C(c2ccccc2)c2nnnn2C)cs1 [Example 46]	2.59^[a]
Cn1nnnc1C(=NOCc1cccc(-c2cccc(Cl)c2)n1)c1ccccc1 [Example 47]	4.49^[a]
CN(Cc1ccccc1)c1nc(CON=C(c2ccccc2)c2nnnn2C)cs1 [Example 48]	3.89^[a]
Cn1nnnc1C(=NOCc1csc(N2CCCCC2)n1)c1ccccc1 [Example 49]	3.39^[a]

test: logP(HCOOH) reported with HPLC/MS; conditions: HCOOH (formic acid), logP(HCOOH), HPLC/MS

SMILES	chromatographic logP
CCCCCCN(C=O)c1cccc(C)[n+]1[O-] [N-hexyl-N-(6-methyl-1-oxidopyridin-2-yl)formamide]	1.82
CCCCCCN(C=O)c1cccc(C)n1 [N-hexyl-N-(6-methylpyridin-2-yl)formamide]	3.46
CSc1cccc(C(=NO)c2nnnn2C)c1 [N-hydroxy-1-[3-(methylsulfanyl)phenyl]-1-(1-methyl-1H-tetrazol-5-yl)methanimine]	1.98
CCCCSC(=O)Nc1cccc(CON=C(c2ccccc2)c2nnnn2C)n1 [S-butyl {6-[({[(1-methyl-1H-tetrazol-5-yl)(phenyl)methylene]amino}oxy)methyl]pyridin-2-yl}carbamothioate]	4.25
CN(C)c1cccc(C(=O)c2nnnn2C)c1 [[3-(dimethylamino)phenyl](1-methyl-1H-tetrazol-5-yl)methanone]	2.21
CSc1cccc(C(=O)c2nnnn2C)c1 [[3-(methylsulfanyl)phenyl](1-methyl-1H-tetrazol-5-yl)methanone]	2.52
OCc1cccc(C2OCCO2)n1 [[6-(1,3-dioxolan-2-yl)pyridin-2-yl]methanol]	0.54
CSc1cccc(C(=NOCc2cccc(N(CCC3CCCCC3)C(=O)OC(C)(C)C)n2)c2nnnn2C)c1 [tert-butyl (2-cyclohexylethyl)(6-{[({[3-(methylsulfanyl)phenyl](1-methyl-1H-tetrazol-5-yl)methylene}-amino)oxy]methyl}pyridin-2-yl)carbamate]	6.83
CC(C)(C)OC(=O)N(CCC1CCCCC1)c1cccc(CBr)n1 [tert-butyl [6-(bromomethyl)pyridin-2-yl](2-cyclohexylethyl)carbamate]	6.79

same assay, conditions: HPLC/MS

SMILES	chromatographic logP
COC(=O)c1nc(Br)sc1C [methyl 2-bromo-5-methyl-1,3-thiazole-4-carboxylate]	1.84

same assay, conditions: logP(HCOOH), HPLC/MS

SMILES	chromatographic logP
Cc1cccc(NC=O)n1 [N-(6-methylpyridin-2-yl)formamide]	0.45
CON(C)C(=O)c1cccc(SC)c1 [N-methoxy-N-methyl-3-(methylsulfanyl)benzamide]	1.89
CC(C)(C)OC(=O)N(CCC1CCCCC1)c1cccc(CO)n1 [tert-butyl (2-cyclohexylethyl)[6-(hydroxymethyl)pyridin-2-yl]carbamate]	4.49
CC(C)(C)OC(=O)Nc1cccc(Br)n1 [tert-butyl (6-bromopyridin-2-yl)carbamate]	4.11
CC(C)(C)OC(=O)Nc1cccc(C=O)n1 [tert-butyl (6-formylpyridin-2-yl)carbamate]	2.44
CC(C)(C)OC(=O)Nc1cccc(CO)n1 [tert-butyl [6-(hydroxymethyl)pyridin-2-yl]carbamate]	1.14

same assay, conditions: method [b]: LC-MS at pH 2.7 with 0.1% formic acid in water and acetonitrile (0.1% formic acid), linear gradient 10% to 95% acetonitrile

SMILES	log p
CCc1ccc(C#Cc2nc(CON=C(c3cccc(F)c3)c3nnnn3C)cs2)cc1 [Example 293]	5^[b]
CCOc1ccc(C#Cc2nc(CON=C(c3cccc(F)c3)c3nnnn3C)cs2)cc1 [Example 294]	4.62^[b]
CCCCCCNc1cccc(CON=C(c2cccc(SC)c2)c2nnnn2C)n1 [Example 296]	2.78^[b]
CSc1cccc(C(=NOCc2cccc(NCCC3CCCCC3)n2)c2nnnn2C)c1 [Example 298]	3.17^[b]
CSc1cccc(C(=NOCc2csc(Br)n2)c2nnnn2C)c1 [Example 299]	3.55^[b]
Cn1nnnc1C(=NOCc1cccc(NC2CC3CCC2C3)n1)c1ccccc1 (stereo not drawn) [Example 300]	2.45^[b]
CCCCC#Cc1nc(CON=C(c2cccc(SC)c2)c2nnnn2C)cs1 [Example 301]	4.78^[b]
CSc1cccc(C(=NOCc2csc(C#CC3CC3)n2)c2nnnn2C)c1 [Example 303]	3.99^[b]
CSc1cccc(C(=NOCc2csc(C#CC3CCCCC3)n2)c2nnnn2C)c1 [Example 304]	5.29^[b]
CSc1cccc(C(=NOCc2csc(NCCCc3ccccc3)n2)c2nnnn2C)c1 [Example 305]	3.71^[b]
CC(C)CSC(=O)Nc1cccc(CON=C(c2ccccc2)c2nnnn2C)n1 [Example 308]	4.21^[b]
Cn1nnnc1C(=NOCc1cccc(NC(=O)SC(C)(C)C)n1)c1ccccc1 [Example 309]	4.19^[b]

same assay, conditions: reversed phase HPLC column, pH 2.7, log p, method [b]: LC-MS at pH 2.7 with 0.1% formic acid in water and acetonitrile (0.1% formic acid), linear gradient 10% to 95% acetonitrile

SMILES	chromatographic logP
CCCCCCNc1nc(CON=C(c2cccc(SC)c2)c2nnnn2C)cs1 [Example 297]	3.92
CSc1cccc(C(=NOCc2csc(C#CC3CCCC3)n2)c2nnnn2C)c1 [Example 302]	4.86
CCCCCCNc1cccc(CON=C(c2cccc(N(C)C)c2)c2nnnn2C)n1 [Example 311]	2.44
